Measurements from US20130324493A1, “COMPOSITIONS COMPRISING NINGNANMYCIN AND USES THEREFOR” (North Carolina State University, priority 2012, published 2013).
In brackets after ≈: the same amount, converted by molar mass. Read-outs that look alike come from different tables or passages of the source.

Tests used:
rat [1] = conditions: cited from earlier work
Xanthomonas pruni = assay: Preliminary in vitro antibacterial study; type: cell-based; conditions: ningnanmycin at 100 ug/ml
guinea pig = conditions: cited from earlier work
X. translucent = assay: Preliminary in vitro antibacterial study; type: cell-based
earthworms = conditions: cited from earlier work
honey bee = conditions: cited from earlier work
rat [2] = conditions: cited from earlier work; remark: listed apart in the source
green algae = conditions: green algae, 72 h; cited from earlier work
[3] = system: Rhizoctonia solani (AG2-2IIIB); assay: In vitro activity; type: cell-based; conditions: AG2-2IIIB causing brown patch on creeping bentgrass
Pantoea ananatis = assay: Preliminary in vitro antibacterial study; type: cell-based; conditions: ningnanmycin at 100 ug/ml
[4] = system: M. griesea (turf gray leaf pot); assay: Preliminary in vitro experiment; type: cell-based
[5] = system: brown patch (Rhizoctonia solani AG2-2IIIB); assay: Preliminary field experiment, brown patch; type: in vivo; conditions: creeping bentgrass
anthracnose (C. cereale) = assay: Field efficacy test, control of anthracnose on putting green turf; type: in vivo, 'Dominant Plus' creeping bentgrass; conditions: for Turf quality: 1-to-9 scale (9 = best), anthracnose trial; for anthracnose control (in words): 2010, August
[6] = system: Ophiosphaerella herpotricha (spring dead spot); assay: Preliminary in vitro experiment; type: cell-based
Acidovorax aveane = assay: Preliminary in vitro antibacterial study; type: cell-based; conditions: ningnanmycin at 100 ug/ml
Sclerotinia homoeocarpa = assay: In vitro sensitivity assay (radial growth on fungicide-amended PDA); type: cell-based; conditions: Clarireedia homoeocarpa
Description: (§1) Three isolates of S. homoeocarpa and two isolates of C. cereale were selected to evaluate ningnanmycin (Ningnanmycin 10WP, Deqiang Biological Co., LTD. Harbin, Helongjiang, China) in vitro activities using 5 three-fold dilutions from 0.81 to 0.01 μg a.i./ml. […] Based on preliminary experiments, five dilutions of triticonazole were used, ranging from 0.81 to 0.01 μg a.i/ml for isolates of S. homoeocarpa and from 6.25 to 0.01 μg a.i./ml for isolates of C. cereale. All isolates were prepared for long-term storage on pieces of dried filter paper maintained at −80° C. Filter paper sections containing each isolate were removed from −80° C. storage and placed on PDA amended with 0.05 μg/ml each of chloramphenicol, streptomycin, and tetracycline (PDA+++). After 3 days, mycelium-containing plugs (1×1 cm) were transferred to water agar for another 2 days. Then, water agar plugs (0.45 cm diameter) were cut from the periphery of the colony using a cork borer and placed on the center of Petri dishes containing non-amended PDA and PDA amended with the serial concentrations of each fungicide with three replicates per isolate. Radial growth was measured after three days (72 h) incubation at room temperature for isolates of S. homoeocarpa and seven days for isolates of C. cereale. Relative Growth (RG) was calculated by dividing colony diameter on amended PDA by that on the non-amended PDA. EC50 values were then calculated using the method described by Secor et al. (Fungicide resistance assays for fungal plant pathogens. Methods Mol Biol. 835:385-392, 2012). The in vitro sensitivity assay repeated twice and EC50 value of each isolates was determined as the mean of EC50 values from two assays.

Colletotrichum cereale = assay: as above; type: cell-based
Description: as §1

mammals = conditions: Hu et al. 1997; cited from earlier work
Fish = conditions: species not given; cited from earlier work
creeping bentgrass = conditions: field plots treated with ningnanmycin, 2010 and 2011
rabbit [7] = conditions: cited from earlier work
[8] = system: Magnaporthe poae (summer patch); type: cell-based; conditions: preliminary experiment
rabbit [9] = conditions: cited from earlier work; remark: listed apart in the source
P. aphanidermatum = assay: In vitro activity on turfgrass strains; type: cell-based, Pythium aphanidermatum

CNCC(=O)NC(CO)C(=O)NC1C(C(N)=O)OC(n2ccc(N)nc2=O)C(O)C1O [ningnanmycin, 4-sarcosinamido-L-serinamido-4-deoxy-β-D-pyranoglucuronamido]
Acute toxicity Oral LD50 (rat [1]; female): 12,100 mg/kg (female)
Acute toxicity Oral LD50 (rat [1]; male): 6,810 mg/kg (male)
in vitro activity (Xanthomonas pruni): did not show any in vitro activity
Sensitization (guinea pig): no
in vitro activity (X. translucent; ningnanmycin at 100 ug/ml, preliminary study): did not show any in vitro activity
activity against strains infecting turfgrass (X. translucent; ningnanmycin at 100 ppm): not been able to detect any activity
adverse effects in non-target organisms (earthworms): no adverse effects were observed
Non-mammals, honey bee (honey bee): 200 μg/bee
Acute toxicity Dermal LD50 (rat [2]): >2,000 mg/Kg mg/kg
Aquatic plants EC50 (green algae): 12.0 mg/L (72 h)
in vitro activity [3]: showed in vitro activity
in vitro activity (Pantoea ananatis): did not show any in vitro activity
in vitro activity [4]: demonstrated in vitro activity
efficacy against brown patch [5]: little to no efficacy
Turf quality (anthracnose (C. cereale); Ningnanmycin 10WP 0.08 g/m^2, 7 d interval, Aug. 8, 2010): 5
Turf quality (anthracnose (C. cereale); Ningnanmycin 10WP 0.08 g/m^2, 7 d interval, Aug. 15, 2010): 4
Turf quality (anthracnose (C. cereale); Ningnanmycin 10WP 0.15 g/m^2, 7 d interval, Aug. 8, 2010): 5
Turf quality (anthracnose (C. cereale); Ningnanmycin 10WP 0.15 g/m^2, 7 d interval, Aug. 15, 2010): 5
Turf quality (anthracnose (C. cereale); Ningnanmycin 10WP 0.15 g/m^2, 10 d interval, Aug. 8, 2010): 5
Turf quality (anthracnose (C. cereale); Ningnanmycin 10WP 0.15 g/m^2, 10 d interval, Aug. 15, 2010): 4
Turf quality (anthracnose (C. cereale); Ningnanmycin 10WP 0.30 g/m^2, 10 d interval, Aug. 8, 2010): 5
Turf quality (anthracnose (C. cereale); Ningnanmycin 10WP 0.30 g/m^2, 10 d interval, Aug. 15, 2010): 4
Turf quality (anthracnose (C. cereale); Ningnanmycin 10WP 0.30 g/m^2, 14 d interval, Aug. 8, 2010): 4
Turf quality (anthracnose (C. cereale); Ningnanmycin 10WP 0.30 g/m^2, 14 d interval, Aug. 15, 2010): 4
anthracnose control (in words) (anthracnose (C. cereale); 0.15 g/m^2, 7-day interval): satisfactory level of control
anthracnose control (in words) (anthracnose (C. cereale); 0.15 g/m^2, 14-day interval): lowest suppression of anthracnose but still provided significant suppression compared to the untreated
anthracnose control (in words) (anthracnose (C. cereale); 0.30 g/m^2, 7-day interval): highest level of anthracnose control
anthracnose control (in words) (anthracnose (C. cereale); 0.30 g/m^2, 14-day interval): lowest suppression of anthracnose but still provided significant suppression compared to the untreated
Anthracnose severity (%) (anthracnose (C. cereale); Ningnanmycin 10WP 0.08 g/m^2, 7 d interval, Aug. 1, 2011): 16%
Anthracnose severity (%) (anthracnose (C. cereale); Ningnanmycin 10WP 0.08 g/m^2, 7 d interval, Aug. 8, 2011): 4%
Anthracnose severity (%) (anthracnose (C. cereale); Ningnanmycin 10WP 0.08 g/m^2, 7 d interval, Aug. 15, 2011): 15%
Anthracnose severity (%) (anthracnose (C. cereale); Ningnanmycin 10WP 0.08 g/m^2, 7 d interval, Jul. 25, 2011): 20%
Anthracnose severity (%) (anthracnose (C. cereale); Ningnanmycin 10WP 0.15 g/m^2, 7 d interval, Aug. 1, 2011): 9%
Anthracnose severity (%) (anthracnose (C. cereale); Ningnanmycin 10WP 0.15 g/m^2, 7 d interval, Aug. 8, 2011): 3%
Anthracnose severity (%) (anthracnose (C. cereale); Ningnanmycin 10WP 0.15 g/m^2, 7 d interval, Aug. 15, 2011): 9%
Anthracnose severity (%) (anthracnose (C. cereale); Ningnanmycin 10WP 0.15 g/m^2, 7 d interval, Jul. 25, 2011): 17%
Anthracnose severity (%) (anthracnose (C. cereale); Ningnanmycin 10WP 0.15 g/m^2, 10 d interval, Aug. 1, 2011): 18%
Anthracnose severity (%) (anthracnose (C. cereale); Ningnanmycin 10WP 0.15 g/m^2, 10 d interval, Aug. 8, 2011): 8%
Anthracnose severity (%) (anthracnose (C. cereale); Ningnanmycin 10WP 0.15 g/m^2, 10 d interval, Aug. 15, 2011): 17%
Anthracnose severity (%) (anthracnose (C. cereale); Ningnanmycin 10WP 0.15 g/m^2, 10 d interval, Jul. 25, 2011): 21%
Anthracnose severity (%) (anthracnose (C. cereale); Ningnanmycin 10WP 0.30 g/m^2, 10 d interval, Aug. 1, 2011): 20%
Anthracnose severity (%) (anthracnose (C. cereale); Ningnanmycin 10WP 0.30 g/m^2, 10 d interval, Aug. 8, 2011): 3%
Anthracnose severity (%) (anthracnose (C. cereale); Ningnanmycin 10WP 0.30 g/m^2, 10 d interval, Aug. 15, 2011): 15%
Anthracnose severity (%) (anthracnose (C. cereale); Ningnanmycin 10WP 0.30 g/m^2, 10 d interval, Jul. 25, 2011): 16%
Anthracnose severity (%) (anthracnose (C. cereale); Ningnanmycin 10WP 0.30 g/m^2, 14 d interval, Aug. 1, 2011): 14%
Anthracnose severity (%) (anthracnose (C. cereale); Ningnanmycin 10WP 0.30 g/m^2, 14 d interval, Aug. 8, 2011): 6%
Anthracnose severity (%) (anthracnose (C. cereale); Ningnanmycin 10WP 0.30 g/m^2, 14 d interval, Aug. 15, 2011): 13%
Anthracnose severity (%) (anthracnose (C. cereale); Ningnanmycin 10WP 0.30 g/m^2, 14 d interval, Jul. 25, 2011): 20%
in vitro activity [6]: demonstrated in vitro activity
in vitro activity (Acidovorax aveane): did not show any in vitro activity
EC50 (Sclerotinia homoeocarpa; 72 h, isolate 761SHME, radial growth after 72 h, mean of two assays): 0.02 µg/mL (≈ 0.0451 µM)
EC50 (Sclerotinia homoeocarpa; 72 h, isolate LWC 27, radial growth after 72 h, mean of two assays): 0.01 µg/mL (≈ 0.0226 µM)
EC50 (Sclerotinia homoeocarpa; 72 h, isolate PST4, radial growth after 72 h, mean of two assays): 0.01 µg/mL (≈ 0.0226 µM)
EC50 (Sclerotinia homoeocarpa; read-out: mean EC50, mean of three isolates): 0.01 µg/mL (≈ 0.0226 µM)
EC50 (Colletotrichum cereale; 168 h, isolate ABR1, radial growth after seven days, mean of two assays): 0.36 µg/mL (≈ 0.812 µM)
EC50 (Colletotrichum cereale; 168 h, isolate ABR12, radial growth after seven days, mean of two assays): 0.24 µg/mL (≈ 0.541 µM)
EC50 (Colletotrichum cereale; read-out: mean EC50, mean of two isolates): 0.3 µg/mL (≈ 0.677 µM)
carcinogenicity, reproductive toxicity, developmental effects (mammals): no carcinogenicity, reproductive toxicity, or developmental effects have been observed
toxicity to mammals (mammals): very low toxicity
Fish LC50 (96 h) (Fish): >1,000 mg/L
plant growth regulator effects (creeping bentgrass): no plant growth regulator effects were observed
Irritation to skin (rabbit [7]): no
in vitro activity [8]: demonstrated in vitro activity
Irritation to eye (rabbit [9]): no
in vitro activity (P. aphanidermatum; concentration not given): no in vitro activity
activity against strains infecting turfgrass (P. aphanidermatum; ningnanmycin at 100 ppm): not been able to detect any activity
